pIC50: −log10 of the molar value. Read-outs that look alike come from different tables or passages of the source.
Key:
RPE cells (ARPE-19) = test: Focus (drusen-like structure) formation suppression in EMT induction model of RPE cells; assay type: cell-based, human; settings: for Suppression of drusen-like structure formed in the RPE cell model: FIG. 35 to 39; for pIC50: Homo sapiens
Method: RPE cells (ARPE-19) were seeded on a plate, and incubated for 5 days at 37° C. […] As a control of EMT induction, a sample to which a compound to be assessed (test drug) is not added was used. After 48 hours from EMT induction, the cells were fixed by treating with a 4% paraformaldehyde solution for 30 minutes at room temperature, and then washed three times with PBS. The cells were treated with a 0.2% Triton-X/PBS solution for 5 minutes, and washed three times with PBS. […] The fluorescent-stained cells were imaged by using an Image Express Micro (available from Molecular Devices), and digitized by using a MetaXpress2.0 (available from Molecular Devices). By analyzing the degree of formation of Focus (Focus level) from the numerical data, a Focus formation suppressing rate was calculated according to the following Formula 1 on the basis of the numerical value at the time of no addition of a compound, and the EMT suppressive effect in each compound was verified. The degree of formation of Focus (Focus level) was determined according to the number and the volume of Focus as indexes.
IC50 in the table was calculated using the following Formula 2.
A: Higher concentration sandwiching 50%
B: Lower concentration sandwiching 50%
C: Inhibition rate at lower concentration sandwiching 50%
D: Inhibition rate at higher concentration sandwiching 50%
RPE cells (ARPE-19) were seeded on a plate, and incubated for 5 days at 37° C. […] As a control of EMT induction, a sample to which a compound to be assessed (test drug) is not added was used. The cells after observation were fixed by treating with a 4% paraformaldehyde solution for 30 minutes at room temperature, and then washed three times with PBS. The cells were treated with a 0.2% Triton-X/PBS solution for 5 minutes, and washed three times with PBS. […] The fluorescent-stained cells were imaged by using an Image Express Micro (available from Molecular Devices), and digitized by using a MetaXpress2.0 (available from Molecular Devices). By analyzing the degree of formation of Focus from the numerical data, a Focus formation suppressing rate was calculated on the basis of the case without addition of a compound and the case without EMT induction, and the EMT suppressive effect in each compound was verified. […] After washing three times with methanol, the cells were dried for 3 hours at room temperature. The dried cells were observed under a microscope.

mouse = test: In vivo model test for drusen suppression (TNF-a induced drusen-like structure in retinal region); settings: oral, 14 days; oxaprozin 600 mg/kg/day, epalrestat 600 mg/kg/day, zaltoprofen 40 mg/kg/day
Method: In the vicinity of the retina in the posterior segment of eyeball of mouse, 400 ng of Recombinant Mouse TNF-a (R&D Systems, # 410-MT) was administered. After two weeks from administration, an eye ball was extracted, and a formalin-fixed, paraffin-embedded block was prepared. The tissue sample was deparaffinized by treating three times with xylene for 5 minutes each, twice with 100% ethanol for 1 minute each, with 90% ethanol for 1 minute, with 80% ethanol for 1 minute, with 70% ethanol for 1 minute, and with water for 5 minutes. Staining was conducted with a Mayer' s hematoxylin solution for 4 minutes, and with an eosin liquid for 1 minute. After treating for 5 minutes in flowing water, treatments were conducted with 70% ethanol for 1 minute, with 80% ethanol for 1 minute, with 90% ethanol for 1 minute, twice with 100% ethanol for 1 minute each, and three times with xylene for 5 minutes each, followed by mounting with Marinol. After drying for 15 minutes or more at room temperature, the untreated RPE cells, and the RPE cells in which inflammation is induced were observed. An eyeball tissue segment was prepared from a block. After incubation for 30 minutes in a gas-phase incubator at 56° C., the tissue sample was deparaffinized by treating three times with xylene for 5 minutes each, twice with 100% ethanol for 1 minute each, with 90% ethanol for 1 minute, with 80% ethanol for 1 minute, with 70% ethanol for 1 minute, and with water for 5 minutes. After removing a melanin pigment in tissues using Delicate Melanin Bleach Kit for Special Stains and IHC (Polysciences, # 24909-1) according to the manufacturer's protocol, a microwave treatment using a citrate buffer pH 6.0 was conducted for 10 minutes to activate the antigen. After standing still for 30 minutes at room temperature, treatments were conducted with PBS for 5 minutes, with a 3% hydrogen peroxide/PBS solution for 5 minutes, and with PBS for 5 minutes to inactivate an endogenous peroxidase. The sample was stood still in a 3% BSA/PBS solution for 30 minutes at room temperature to block the tissues. As primary antibodies, an anti-E-Cadherin antibody (BD Biosciences, # 610182) that was 500-fold diluted with a 1.5% BSA/PBS solution, and an anti-Cytokeratin antibody (Sigma, # C2931) that was 1000-fold diluted, and an anti-Fibronectin antibody (abcam, # 45688) that was 1000-fold diluted, and an anti-Vimentin antibody (Cell signaling Technology, # 5741) that was 100-fold diluted were added in an amount of 200 μL per one tissue, and caused to react with the tissues for 17 hours at 4° C. The tissues reacted with the primary antibodies were washed three times with PBS for 5 minutes each, then caused to react with a secondary antibody (a Mouse on Mouse (M. O. M.) Elite Peroxidase Kit (Vector Laboratories, # PK-2200) for the anti-E-Cadherin antibody and the anti-Cytokeratin antibody, and a VECTASTAIN Elite ABC Rabbit IgG Kit (Vector Laboratories, # PK-6101) for the anti-Fibronectin antibody and the anti-Vimentin antibody) for 30 minutes at room temperature, then washed three times with PBS for 5 minutes each, and then subjected to an ABC reaction for 30 minutes at room temperature according to the manufacturer's protocol. After washing the tissues three times with PBS for 5 minutes each, color development was caused for 3 minutes at room temperature using an ImmPACT AMEC Red Peroxidase (HRP) Substrate (Vector Laboratories, # SK-4285). The color-developed tissues were stained by using a New hematoxylin Type M (MUTO PURE CHEMICALS CO., LTD., # 30141), and then stood still in flowing water for 3 minutes, and treated with 70% ethanol for 1 minute, with 80% ethanol for 1 minute, with 90% ethanol for 1 minute, twice with 100% ethanol for 1 minute each, and three times with xylene for 5 minutes each, and mounted with the use of Marinol. After drying for 15 minutes or more at room temperature, observation was conducted. […]

[1] = cited from earlier work
[2] = Table 1, EMT-induced ARPE-19, compound added simultaneously, 48 hours, read-out: IC50 (Focus formation suppressing rate, EMT suppressive effect)
[3] = Test example 7, EMT-induced ARPE-19, 48 hours, read-out: IC50 values in the drusen-like structure suppressing tests
[4] = Table 3, from the interview form and the package insert of each drug, read-out: Cmax
[5] = quoted in Test examples 2-3, 2-4, 2-5, read-out: Cmax (as quoted in the VEGF test examples)

SMILES: O=C(O)CCc1nc(-c2ccccc2)c(-c2ccccc2)o1 [Oxaprozin, oxaprozin]
- Suppression of drusen-like structure formed in the RPE cell model (RPE cells (ARPE-19); EMT-induced ARPE-19, 48 hours): suppresses a drusen-like structure formed in the RPE cell model in a concentration-dependent manner
- pIC50 (RPE cells (ARPE-19); [2]): 4.21
- pIC50 (RPE cells (ARPE-19); [3]): 4.21
- Formation of a drusen-like structure (HE staining) (mouse): apparently suppressed
- Immunostaining of E-Cadherin in retinal epithelial cells (mouse): strongly positive staining was observed between cells
- Immunostaining of Fibronectin (mouse): the signal strength of staining was small
- Shape of retinal pigment epithelial cells (mouse): cells keeping a cubic shape were abundantly observed
- Cmax ([1]; Alvo tablet Interview Form, repeated-dose administration, read-out: Cmax): 341 µM
- Cmax [1, 4]: 341 µM
- Cmax [1, 5]: 341 µM

SMILES: CC(C(=O)O)c1ccc2c(c1)CC(=O)c1ccccc1S2 (stereo not drawn) [Zaltoprofen, zaltoprofen]
- Suppression of drusen-like structure formed in the RPE cell model (RPE cells (ARPE-19); EMT-induced ARPE-19, 48 hours): suppresses a drusen-like structure formed in the RPE cell model in a concentration-dependent manner
- pIC50 (RPE cells (ARPE-19); [2]): 4.78
- pIC50 (RPE cells (ARPE-19); [3]): 4.78
- Formation of a drusen-like structure (HE staining) (mouse): apparently suppressed
- Immunostaining of E-Cadherin in retinal epithelial cells (mouse): strongly positive staining was observed between cells
- Immunostaining of Fibronectin (mouse): the signal strength of staining was small
- Shape of retinal pigment epithelial cells (mouse): cells keeping a cubic shape were abundantly observed
- Cmax ([1]; Pharmaceutical Interview Form, single-dose administration, read-out: Cmax): 20.4 µM
- Cmax ([1]; Soleton tablet 80 Interview Form, single-dose administration, depending on the kind of the additive, read-out: Cmax): 16.8 µM
- Cmax [1, 4]: 20.4 µM
- Cmax [1, 5]: 20.4 µM
